The series concerns rodent lifetime carcinogenesis bioassay, tumor incidence TD50. In words: chronic cancer bioassays in animals – CPDB, compiled studies (AID 1745844).

The source made the active and inactive calls. The rule behind the calls is not given here.

With `[O-]/[N+](=N\O)c1ccccc1`, the TD50 reads like this: (mouse, strain B6C3F1, females, in feed, site: Harderian gland, lesion: adenoma, NOS, dosed 78 weeks, study length 95 weeks) 1270 mg/kg/day; (mouse, strain B6C3F1, females, in feed, site: Zymbal's gland, lesion: sebaceous adenocarcinoma + squamous-cell carcinoma, dosed 78 weeks, study length 95 weeks) 3930 mg/kg/day; (mouse, strain B6C3F1, females, in feed, site: all sites + Harderian gland + liver + Zymbal's gland, lesion: hemangioma + hemangiosarcoma + adenoma, NOS + hepatocellular adenoma + hepatocellular carcinoma + sebaceous adenocarcinoma + squamou, dosed 78 weeks, study length 95 weeks) 253 mg/kg/day; (mouse, strain B6C3F1, females, in feed, site: all sites, lesion: hemangioma + hemangiosarcoma, dosed 78 weeks, study length 95 weeks) 419 mg/kg/day; (mouse, strain B6C3F1, females, in feed, site: all sites, lesion: hemangiosarcoma, dosed 78 weeks, study length 95 weeks) 1330 mg/kg/day; (mouse, strain B6C3F1, females, in feed, site: any site (literature study), lesion: several types, types named in the paper, dosed 78 weeks, study length 95 weeks) 211 mg/kg/day. Besides, the TD50 is 413 mg/kg/day (mouse, strain B6C3F1, females, in feed, site: liver, lesion: hepatocellular adenoma + hepatocellular carcinoma + neoplastic nodule, dosed 78 weeks, study length 95 weeks); 413 mg/kg/day (mouse, strain B6C3F1, females, in feed, site: liver, lesion: hepatocellular adenoma + hepatocellular carcinoma, dosed 78 weeks, study length 95 weeks); 564 mg/kg/day (mouse, strain B6C3F1, females, in feed, site: liver, lesion: hepatocellular carcinoma, dosed 78 weeks, study length 95 weeks); 798 mg/kg/day (mouse, strain B6C3F1, females, in feed, site: lung, lesion: alveolar/bronchiolar adenoma + alveolar/bronchiolar carcinoma, dosed 78 weeks, study length 95 weeks); 1040 mg/kg/day (mouse, strain B6C3F1, males, in feed, site: Harderian gland, lesion: adenoma, NOS, dosed 78 weeks, study length 95 weeks); 1000 mg/kg/day (mouse, strain B6C3F1, males, in feed, site: all sites, lesion: hemangiosarcoma, dosed 78 weeks, study length 95 weeks). Also, the TD50 is 252 mg/kg/day (mouse, strain B6C3F1, males, in feed, site: any site (literature study), lesion: several types, types named in the paper, dosed 78 weeks, study length 95 weeks); 5450 mg/kg/day (mouse, strain B6C3F1, males, in feed, site: liver, lesion: hepatocellular adenoma + hepatocellular carcinoma + neoplastic nodule, dosed 78 weeks, study length 95 weeks); 2390 mg/kg/day (mouse, strain B6C3F1, males, in feed, site: lung, lesion: alveolar/bronchiolar adenoma + alveolar/bronchiolar carcinoma, dosed 78 weeks, study length 95 weeks); 171 mg/kg/day (rat, strain Fischer 344, females, in feed, site: Zymbal's gland, lesion: ceruminous carcinoma + squamous-cell carcinoma, dosed 78 weeks, study length 106 weeks); 14.1 mg/kg/day (rat, strain Fischer 344, females, in feed, site: all sites + liver + stomach + Zymbal's gland, lesion: hemangiosarcoma + hepatocellular carcinoma + neoplastic nodule + squamous-cell carcinoma + squamous-cell papilloma + ceruminous ca, dosed 78 weeks, study length 106 weeks); 17.4 mg/kg/day (rat, strain Fischer 344, females, in feed, site: all sites, lesion: hemangiosarcoma, dosed 78 weeks, study length 106 weeks). Besides, the TD50 is 11.2 mg/kg/day (rat, strain Fischer 344, females, in feed, site: any site (literature study), lesion: several types, types named in the paper, dosed 78 weeks, study length 106 weeks); 17.7 mg/kg/day (rat, strain Fischer 344, females, in feed, site: liver, lesion: hepatocellular adenoma + hepatocellular carcinoma + neoplastic nodule, dosed 78 weeks, study length 106 weeks); 17.7 mg/kg/day (rat, strain Fischer 344, females, in feed, site: liver, lesion: hepatocellular carcinoma + neoplastic nodule, dosed 78 weeks, study length 106 weeks); 20.1 mg/kg/day (rat, strain Fischer 344, females, in feed, site: liver, lesion: hepatocellular carcinoma, dosed 78 weeks, study length 106 weeks); 27.8 mg/kg/day (rat, strain Fischer 344, females, in feed, site: stomach, lesion: squamous-cell carcinoma + squamous-cell papilloma, dosed 78 weeks, study length 106 weeks); 31.3 mg/kg/day (rat, strain Fischer 344, females, in feed, site: stomach, lesion: squamous-cell carcinoma, dosed 78 weeks, study length 106 weeks). Also, the TD50 was 5.33 mg/kg/day (rat, strain Fischer 344, males, in feed, site: all sites + liver + stomach, lesion: hemangiosarcoma + hepatocellular carcinoma + neoplastic nodule + squamous-cell carcinoma + squamous-cell papilloma, dosed 78 weeks, study length 105 weeks); 5.49 mg/kg/day (rat, strain Fischer 344, males, in feed, site: all sites, lesion: hemangiosarcoma, dosed 78 weeks, study length 105 weeks); 8.85 mg/kg/day (rat, strain Fischer 344, males, in feed, site: any site (literature study), lesion: several types, types named in the paper, dosed 78 weeks, study length 105 weeks); 139 mg/kg/day (rat, strain Fischer 344, males, in feed, site: body cavities, lesion: mesothelioma, NOS + mesothelioma, dosed 78 weeks, study length 105 weeks); 9.28 mg/kg/day (rat, strain Fischer 344, males, in feed, site: liver, lesion: hepatocellular adenoma + hepatocellular carcinoma + neoplastic nodule, dosed 78 weeks, study length 105 weeks); 9.28 mg/kg/day (rat, strain Fischer 344, males, in feed, site: liver, lesion: hepatocellular carcinoma + neoplastic nodule, dosed 78 weeks, study length 105 weeks). In addition, the TD50 is, setting by setting: (rat, strain Fischer 344, males, in feed, site: liver, lesion: hepatocellular carcinoma, dosed 78 weeks, study length 105 weeks) 30.7 mg/kg/day; (rat, strain Fischer 344, males, in feed, site: stomach, lesion: squamous-cell carcinoma + squamous-cell papilloma, dosed 78 weeks, study length 105 weeks) 6.28 mg/kg/day; (rat, strain Fischer 344, males, in feed, site: stomach, lesion: squamous-cell carcinoma, dosed 78 weeks, study length 105 weeks) 6.94 mg/kg/day; (rat, strain Fischer 344, males, in feed, site: subcutaneous tissue, lesion: fibroma, dosed 78 weeks, study length 105 weeks) 10.5 mg/kg/day.

`CC(=O)Nc1ccc(C(=O)CCl)cc1`: the TD50 is, setting by setting: (mouse, strain B6C3F1, females, in feed, site: any site (literature study), lesion: several types, types named in the paper, dosed 90 weeks, study length 105 weeks) 3500 mg/kg/day; (mouse, strain B6C3F1, females, in feed, site: liver, lesion: hepatocellular adenoma + hepatocellular carcinoma + neoplastic nodule, dosed 90 weeks, study length 105 weeks) 4700 mg/kg/day; (mouse, strain B6C3F1, females, in feed, site: liver, lesion: hepatocellular adenoma, dosed 90 weeks, study length 105 weeks) 4700 mg/kg/day; (mouse, strain B6C3F1, females, in feed, site: lung, lesion: alveolar/bronchiolar adenoma + alveolar/bronchiolar carcinoma, dosed 90 weeks, study length 105 weeks) 3020 mg/kg/day; (rat, strain Fischer 344, males, in feed, site: any site (literature study), lesion: several types, types named in the paper, dosed 87 weeks, study length 103 weeks) 325 mg/kg/day (inactive); (rat, strain Fischer 344, males, in feed, site: liver, lesion: hepatocellular adenoma + hepatocellular carcinoma + neoplastic nodule, dosed 87 weeks, study length 103 weeks) 2470 mg/kg/day. In addition, the carcinogen call reads like this: (mouse, strain B6C3F1, males, in feed, site: any site (literature study), lesion: several types, types named in the paper, dosed 90 weeks, study length 105 weeks) “negative (inactive)”; (rat, strain Fischer 344, females, in feed, site: any site (literature study), lesion: several types, types named in the paper, dosed 87 weeks, study length 103 weeks) “negative (inactive)”.

`NC(=O)CCCCn1ccc(NC(N)=NCC(F)(F)F)n1`: the TD50 (mouse, strain B6C3F1, females, in feed, site: gastric mucosa, lesion: carcinoid tumor, malignant, dosed 91 weeks, study length 91 weeks) is 956 mg/kg/day; the TD50 (mouse, strain B6C3F1, males, in feed, site: gastric mucosa, lesion: carcinoid tumor, malignant, dosed 91 weeks, study length 91 weeks) is 401 mg/kg/day; the TD50 (rat, strain Sprague-Dawley, females, in feed, site: gastric mucosa, lesion: carcinoid tumor, malignant, dosed 104 weeks, study length 104 weeks) is 1350 mg/kg/day; the TD50 (rat, strain Sprague-Dawley, males, in feed, site: gastric mucosa, lesion: carcinoid tumor, malignant, dosed 104 weeks, study length 104 weeks) is 1030 mg/kg/day.

In the case of `CN(CCCC(=O)c1cccnc1)N=O`, the TD50 runs as follows: (hamster, strain Syrian Golden, females, in drinking water, site: liver, lesion: hepatocellular carcinoma, dosed 87 weeks, study length 87 weeks) 5.13 mg/kg/day (inactive); (rat, strain Fischer 344, males, in drinking water, site: all sites, lesion: several types, types named in the paper, dosed 118 weeks, study length 128 weeks) 0.14 mg/kg/day; (rat, strain Fischer 344, males, in drinking water, site: liver, lesion: adenoma, dosed 118 weeks, study length 128 weeks) 0.871 mg/kg/day; (rat, strain Fischer 344, males, in drinking water, site: liver, lesion: hepatoma, dosed 118 weeks, study length 128 weeks) 2.74 mg/kg/day; (rat, strain Fischer 344, males, in drinking water, site: liver, lesion: several types, types named in the paper, dosed 111 weeks, study length 111 weeks) 2.97 mg/kg/day; (rat, strain Fischer 344, males, in drinking water, site: liver, lesion: several types, types named in the paper, dosed 118 weeks, study length 128 weeks) 0.651 mg/kg/day. Further, the TD50 (rat, strain Fischer 344, males, in drinking water, site: lung, lesion: adenocarcinoma, dosed 111 weeks, study length 111 weeks) is 0.148 mg/kg/day; the TD50 (rat, strain Fischer 344, males, in drinking water, site: lung, lesion: adenocarcinoma, dosed 118 weeks, study length 128 weeks) turned out to be 0.672 mg/kg/day; the TD50 (rat, strain Fischer 344, males, in drinking water, site: lung, lesion: adenoma, dosed 111 weeks, study length 111 weeks) came out at 0.279 mg/kg/day; the TD50 (rat, strain Fischer 344, males, in drinking water, site: lung, lesion: adenoma, dosed 118 weeks, study length 128 weeks) stood at 0.343 mg/kg/day; the TD50 (rat, strain Fischer 344, males, in drinking water, site: lung, lesion: adenosquamous carcinoma, dosed 118 weeks, study length 128 weeks) amounted to 1.46 mg/kg/day; the TD50 (rat, strain Fischer 344, males, in drinking water, site: lung, lesion: several types, types named in the paper, dosed 111 weeks, study length 111 weeks) was 0.0688 mg/kg/day. Further, the TD50 is 0.182 mg/kg/day (rat, strain Fischer 344, males, in drinking water, site: lung, lesion: several types, types named in the paper, dosed 118 weeks, study length 128 weeks); 3.4 mg/kg/day (rat, strain Fischer 344, males, in drinking water, site: lung, lesion: squamous-cell carcinoma, dosed 118 weeks, study length 128 weeks); 1.66 mg/kg/day (rat, strain Fischer 344, males, in drinking water, site: nasal cavity, lesion: several types, types named in the paper, dosed 118 weeks, study length 128 weeks); 29.2 mg/kg/day (rat, strain Fischer 344, males, in drinking water, site: pancreas, exocrine, lesion: acinar-cell adenoma, dosed 118 weeks, study length 128 weeks); 6.93 mg/kg/day (rat, strain Fischer 344, males, in drinking water, site: pancreas, exocrine, lesion: adenocarcinoma, acinar or ductal, dosed 118 weeks, study length 128 weeks); 0.975 mg/kg/day (rat, strain Fischer 344, males, in drinking water, site: pancreas, exocrine, lesion: malignant tumor, dosed 111 weeks, study length 111 weeks). The TD50 (rat, strain Fischer 344, males, in drinking water, site: pancreas, exocrine, lesion: several types, types named in the paper, dosed 118 weeks, study length 128 weeks) is 0.49 mg/kg/day. Also, the carcinogen call (hamster, strain Syrian Golden, females, in drinking water, site: lung, lesion: several types, types named in the paper, dosed 87 weeks, study length 87 weeks) was “negative (inactive)”; the carcinogen call (hamster, strain Syrian Golden, females, in drinking water, site: pancreas, lesion: adenocarcinoma, dosed 87 weeks, study length 87 weeks) was “negative (inactive)”; the carcinogen call (hamster, strain Syrian Golden, females, in drinking water, site: pancreatic islets, lesion: islet-cell adenoma, dosed 87 weeks, study length 87 weeks) was “negative (inactive)”.

Usually TD50 stands for the dose at which the toxic effect under study appears in half of the subjects.
